According to publication PMC5941281, “Protecting group free radical C–H trifluoromethylation of peptides” (Chemical Science, 2018):

Experiments:
[1] = target: human insulin receptor(B); experiment: Insulin Receptor Binding Assay (scintillation proximity assay); details: SPA, 384-well, membranes from CHO cells overexpressing human insulin receptor(B); [125I]-insulin 0.015 nM; room temperature, 1 to 12 hours
Experimental: Both the binding affinity and functional activity of 18 supported the conclusion that the A19-CF3-tyrosine–insulin maintained its structural integrity as compared with unmodified, native insulin. To further support this observation, SOFAST ^13C methyl HMQC NMR spectroscopic analysis was conducted on both 18 and native unmodified insulin.[18] […] This observation validated the notion that CF3-labeling of aromatic sidechains provides a sensitive ^19F-NMR spectroscopic probe of the local environment in complex peptides while being minimally perturbing to the overall structure of the biomacromolecule.
Insulin Receptor Binding Assays were run in a scintillation proximity assay (SPA) 384- we ll
format using cell membranes prepared from CHO cells overexpressing human insulin
receptor(B) grown in F12 media containing 10% FBS and antibiotics (G418,
Penicillin/[…]). Cell membranes were prepared in 50 mM Tris buffer, pH 7.8, containing
5 m M Mg Cl 2. The assay buffer contained 50 mM Tris buffer, pH 7.5, 150 mM NaCl, 1 mM
CaCl2, 5 mM MgCl 2, 0.1% BSA and protease inhibitors (Complete- Mi n i -Roche). Cell
membranes were added to W GA PVT PEI SPA beads (5 mg/mL f inal concentration) f ollowed by
addition of test molecules at appropriate concentrations. After 5-15 min incubation at room
temperature, [125I]- insulin was added at 0.015 nM f inal concentration f or a f inal total volume of
50 µL. […]

[2] = target: human insulin receptor(B); experiment: Insulin Receptor Phosphorylation Assay (MSD pIR assay); format: cell-based; details: CHO cells stably expressing human insulin receptor(B), serum starved, 40,000 cells/well, 8 min at 37 °C, read-out: EC50 (functional assay)

## native insulin: recombinant human insulin, 21 amino acid A chain and 30 amino acid B chain linked by three disulfide bonds
[1]
  IC50: 0.8 nM
[2]
  EC50: 0.4 nM
